Experimental data reported in publication PMC7732020 (Nucleosides, nucleotides & nucleic acids, 2009).
Like-named read-outs stand apart in the source and are kept apart here.

Columns and labels:
[1] = test system: HIV; details: isomeric adenine nucleosides with 2′-α-fluoro atom; cited from earlier work
[2] = test system: human PBM cells; details: cited from earlier work
[3] = test system: HIV-1; details: read-out: Anti-HIV-1 activity EC50; PBM cells; taken from literature; cited from earlier work
[4] = test system: HIV-1; test: Anti-HIV-1 activity in human PBM cells; assay type: cell-based; details: primary human PBM cells; for EC50: read-out: Anti-HIV-1 activity EC50; for EC90: read-out: Anti-HIV-1 activity EC90
[5] = test system: Vero cells
[6] = test system: human PBM cells
[7] = test system: Huh-7 Replicon cells; test: Toxicity in Huh-7 Replicon cells; details: read-out: CC50 (toxicity in Huh-7 Replicon cells); replicon assay Huh7 cells
[8] = test system: HCV; test: Anti-HCV activity in replicon assay Huh7 cells; assay type: cell-based, hepatitis C virus; details: for EC50: read-out: Anti-HCV activity EC50; for EC90: read-out: Anti-HCV activity EC90
[9] = test system: CEM cells

| SMILES | antiviral activity [1] | CC50 [2] [µM] | EC50 [3] [µM] | EC50 [4] [µM] | EC90 [4] [µM] | CC50 [5] [µM] | CC50 [6] [µM] | CC50 [7] [µM] | EC50 [8] [µM] | EC90 [8] [µM] | CC50 [9] [µM] |
| --- | --- | --- | --- | --- | --- | --- | --- | --- | --- | --- | --- |
| Nc1ncnc2c1ncn2[C@@H]1O[C@H](CO)[C@@H](F)[C@H]1F [2′,3′-dideoxy-2′,3′-difluoro–adenosine] | without antiviral activity | – | – | – | – | – | – | – | – | – | – |
| Nc1ncnc2c1ncn2[C@@H]1O[C@H](CO)C[C@H]1F [2′-α-FddA, 9-(2′,3′-dideoxy-2′-fluoro-β-D-erythro-pentofuranosyl)adenine] | without antiviral activity | – | – | – | – | – | – | – | – | – | – |
| Nc1ncnc2c1ncn2[C@@H]1O[C@H](CO)C[C@@H]1F [2′-β-FddA, lodenosine] | – | > 100 | 4.4 | – | – | – | – | – | – | – | – |
| Cc1cn([C@H]2C[C@H](N=[N+]=[N-])[C@@H](CO)O2)c(=O)[nH]c1=O [AZT, reference compound] | – | – | – | 0.0026 | 0.01 | 56 | > 100 | – | – | – | – |
| C[C@@]1(O)[C@H](O)[C@@H](CO)O[C@H]1n1ccc(N)nc1=O [Compound 2-C-Me-C, reference compound] | – | – | – | – | – | – | – | > 10 | 1.3 | 5.4 | – |
| Nc1ncnc2c1ncn2[C@@H]1O[C@H](CO)[C@@H](F)[C@@H]1F [Compound 20, 9-(2′,3′-Dideoxy-2′,3′-difluoro-β-D-arabinofuranosyl)adenine] | – | – | – | 0.72 | 10.3 | > 100 | > 100 | > 10 | > 10 | > 10 | > 100 |
| Nc1nc(Cl)nc2c1ncn2[C@@H]1O[C@H](CO)[C@@H](F)[C@@H]1F [Compound 22, 2-chloro-9-(2′,3′-dideoxy-2,3-difluoro-β-D-arabinofuranosyl)adenine] | – | – | – | 14.1 | 46.3 | > 100 | 13.6 | > 10 | > 10 | > 10 | 70.2 |
